Measurements reported in PubChem BioAssay (NCI).
Several values for one entry are separate records, joined by “and”; a condition that tells them apart may be missing. Identical values can stand only once.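 These data come from cells grown in 96-well plates and exposed to compound for 48 hours at five concentrations. GI50 = concentration required for 50% inhibition of growth. TGI is the concentration that stops growth completely.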

Legend:
Test in all cases: NCI-60 cell line screen, 48 h
[1] = tested on: UO-31 renal
[2] = tested on: HS 578T breast
[3] = tested on: HCT-116 colon
[4] = tested on: NCI/ADR-RES ovarian
[5] = tested on: SK-MEL-28 melanoma
[6] = tested on: RPMI-8226 leukemia
[7] = tested on: SK-OV-3 ovarian
[8] = tested on: SNB-19 CNS
[9] = tested on: CCRF-CEM leukemia
[10] = tested on: MDA-MB-231 breast

SMILES | TGI [1] | TGI [2] [µM] | TGI [3] | TGI [4] [µM] | TGI [5] [µM] | TGI [6] [µM] | TGI [7] | TGI [8] [µM] | TGI [9] [µM] | TGI [10] [µM] | GI50 [1] | GI50 [3] | GI50 [4] [µM] | GI50 [6] | GI50 [7] | GI50 [9]
CC1CCC2c3c([nH]c4ccccc34)C3C(=O)N(C4CCCCC4)C(=O)C3C2C1 (stereo unspecified) | 37.2 µM | 57.4 | 24.2 µM | > 100 | 34.1 | > 100 | 42.5 µM | 32 | > 100 | 26.8 | – | – | – | – | – | –
Cc1cc2nc3n(c2cc1C)C(c1c(F)cccc1F)SC3 (stereo unspecified) | > 10 µM | 54.2 | 28.1 µM | 34.6 | 40.2 | 58.5 | > 100 µM | 53.4 | 64.3 | 41.4 | – | – | – | – | – | –
CN(N)C(=O)NCCCl | > 100 µM | > 100 | > 100 µM | 0.31 | > 100 | > 100 | > 100 µM | > 100 | > 100 | > 100 | – | – | – | – | – | –
Cc1cccc2c(N)c3cccc(C(=O)NCC[N+](C)(C)Cc4sc(N5CCOCC5)nc4[N+](=O)[O-])c3nc12 | 35.7 µM | 28.5 | 20.6 µM | 23.3 | > 100 | > 100 | 6.19 µM | > 100 | 26.9 | 13.1 | – | – | – | – | – | –
COc1ccc(N2CCN(c3ccc4c(c3)NCC(=O)N4)CC2)cc1 | 70.4 µM | 67.1 | > 100 µM | 68.5 | > 100 | 67.5 | > 100 µM | > 100 | > 100 | > 100 | – | – | – | – | – | –
O=C(NN=C1CCCCC1)Nc1ccccc1Cl | > 100 µM | > 100 | > 100 µM | 63.9 | > 100 | > 100 | > 100 µM | > 100 | > 100 | > 100 | – | – | – | – | – | –
COc1ccc(N2C(=O)C3c4[nH]c5ccccc5c4C4CCC(C(C)C)CC4C3C2=O)cc1 (stereo unspecified) | > 100 µM | > 100 | > 100 µM | > 100 | > 100 | > 100 | > 100 µM | > 100 | > 100 | > 100 | – | – | – | – | – | –
N#CC1N(C(=O)c2ccc(F)cc2)c2ccccc2N1C(=O)c1ccc(F)cc1 | > 100 µM | > 100 | > 100 µM | 93.5 | > 100 | 75.4 | > 100 µM | > 100 | 87.2 | > 100 | – | – | – | – | – | –
CC1=CC(=O)c2cccc(NC3=NCCO3)c21 | > 100 µM | > 100 | > 100 µM | 82.5 | > 100 | > 100 | > 100 µM | > 100 | > 100 | > 100 | – | – | – | – | – | –
CC(C)OC(=O)c1ccc(CCC2=CC(=O)C(Br)=CC2=O)cc1 | 27.1 µM | 38.1 | 30.6 µM | 37.4 | 32.7 | 43.3 | > 100 µM | 29.2 | 5.06 | 31.1 | – | – | – | – | – | –
COC(=O)C1(NC(=O)C(N)CC(=O)O)C(C)C1C (stereo unspecified) | > 100 µM | > 100 | > 100 µM | > 100 | > 100 | > 100 | > 100 µM | > 100 | > 100 | > 100 | – | – | – | – | – | –
COC(=O)C[C@H](COCc1ccccc1)NC(=O)C[C@H](COCc1ccccc1)NC(=O)C[C@H](COCc1ccccc1)NC(=O)OC(C)(C)C | > 100 µM | > 100 | 67 µM | > 100 | > 100 | > 100 | > 100 µM | > 100 | > 100 | > 100 | – | – | – | – | – | –
COC(=O)C1=C(OC(=O)/C(=C/c2ccc(Cl)cc2)c2ccccc2)C(C(=O)OC)[C@@]2(O)[C@@H](C(=O)OC)[C@H](C)C[C@@H]1[C@@H]2C(=O)OC (stereo partly specified) | > 100 µM | > 100 | > 100 µM | > 100 | > 100 | > 100 | > 100 µM | > 100 | > 100 | > 100 | – | – | – | – | – | –
Clc1ccc(OCC2NC3C=CC32)cn1 (stereo unspecified) | > 100 µM | > 100 | > 100 µM | > 100 | > 100 | > 100 | > 100 µM | > 100 | > 100 | > 100 | – | – | – | – | – | –
Cc1cc(S(=O)(=O)O)ccc1N=Nc1ccc(N=Nc2c(O)ccc3ccccc23)c(C)c1 | > 100 µM | > 100 | > 100 µM | > 100 | > 100 | > 100 | > 100 µM | > 100 | 60.8 | > 100 | – | – | – | – | – | –
CC1NOC(NS(=O)(=O)c2ccc(N=Nc3c(O)c(C(=O)O)cc4ccccc34)cc2)C1C (stereo unspecified) | > 100 µM | > 100 | > 100 µM | > 100 | > 100 | > 100 | > 100 µM | > 100 | > 100 | > 100 | – | – | – | – | – | –
C1OCN2c3nonc3N3COCN4c5nonc5N1C2C43 (stereo unspecified) | > 100 µM | > 100 | > 100 µM | > 100 | > 100 | > 100 | > 100 µM | > 100 | > 100 | > 100 | – | – | – | – | – | –
O=c1c2c([nH]c3cc4c(cc13)OCO4)-c1ccccc1CCC2 | > 50 µM | > 50 | > 50 µM | > 50 | > 50 | > 50 | > 50 µM | > 50 | > 50 | > 50 | – | – | – | – | – | –
COc1cc2c3c(cc(Cl)nc3c1OC)C(O)(CC(C)=O)C(=O)N2 (stereo unspecified) | > 55.6 µM | > 100 | 31.3 µM | > 63.9 | > 60.7 | > 78.6 | > 72.8 µM | > 54.7 | > 45.4 | 33 | – | – | – | – | – | –
CCN(CC)C(=S)SNCCc1ccc(S(N)(=O)=O)cc1 | 27 µM | 53.1 | 26.4 µM | 41.6 | 25.8 | 38.6 | > 73.1 µM | 50.9 | 36.8 | 30.4 | – | – | – | – | – | –
O=C(CCc1cc(O)cc(O)c1)NCCc1ccc(O)c(O)c1 | > 100 µM | > 100 | > 100 µM | > 100 | > 100 | > 100 | > 100 µM | > 100 | 56.1 | > 100 | – | – | – | – | – | –
CCCCCCC(CCl)c1sc(-c2csc(CCNC(=O)OC(C)(C)C)n2)nc1C(=O)OC (stereo unspecified) | 67.8 µM | 65.9 | 31.6 µM | 14.8 | > 100 | > 100 | 88.2 µM | > 100 | > 100 | > 100 | – | – | – | – | – | –
Cc1ccc([N+](=O)[O-])cc1S(=O)(=O)Nc1ccc(C2=NN(c3ccc([N+](=O)[O-])cc3[N+](=O)[O-])C(c3ccccc3O)C2)cc1 (stereo unspecified) | > 100 µM | > 100 | > 100 µM | > 100 | > 100 | > 100 | > 100 µM | > 100 | > 100 | 86.6 | – | – | – | – | – | –
c1ccc(C(=NNc2nc3ccccc3[nH]2)c2ccccn2)nc1 | 1.78 µM | > 100 | 10.2 µM | 0.583 | > 100 | 1.02 | 0.828 µM | > 100 | 0.257 | > 53.6 | – | – | – | – | – | –
CC(=O)NC1C(OCc2ccccc2)OC(CO)C(O)C1OCC(=O)NC(C)C(=O)NC(CCC(=O)NCCCCCC(=O)Nc1ccc2c(c1)CN1C(=O)c3ccccc3C1=N2)C(N)=O (stereo unspecified) | > 100 µM | > 100 | > 100 µM | > 100 | > 100 | > 100 | > 100 µM | > 100 | > 100 | > 100 | – | – | – | – | – | –
COc1ccc2[nH]c(C(=O)N3CC(CCl)c4ccc([N+](=O)[O-])cc43)cc2c1 (stereo unspecified) | > 100 µM | > 100 | > 100 µM | > 100 | > 100 | > 100 | > 100 µM | > 100 | > 100 | > 100 | – | – | – | – | – | –
N#CSCC1COc2ccccc2O1 (stereo unspecified) | > 10 µM | > 10 | > 10 µM | > 10 | > 10 | > 10 | > 10 µM | > 10 | 8.3 | > 10 | – | – | – | – | – | –
Cc1cc(=O)c2c(O)c3c(O)cc(O)c4c5c(O)cc(O)c6c(O)c7c(=O)cc(C)c8c1c2c(c34)c(c65)c78 | > 100 µM and 65.9 µM | > 100 | > 100 µM and 64.2 µM | > 100 | > 100 | > 100 | > 100 µM and 41.9 µM | > 100 | > 100 | > 100 | > 100 µM and 25.5 µM | > 100 µM and 21.6 µM | > 100 | > 100 µM and 22.3 µM | > 100 µM and 21.6 µM | > 100 µM and 22.2 µM
